{
  "source": "patent EP2345639A1",
  "about": "“Cyclic hydroxylamine derivatives, their preparation and use as antioxidants” (ABIOGEN PHARMA S.p.A., priority 2009, dated 2011)",
  "key": {"[1]": {"assay": "TEAC method (Trolox Equivalent Antioxidant Capacity Assay)", "type": "biochemical", "conditions": "ratio of gradient to gradient of Trolox; 650 nm, 37 °C, about 90 minutes", "text": "This assay is used to measure the total antioxidant activity of pure substances, biological fluids and plant compounds and is based on the reaction of antioxidants with the cation radical ABTS·^+ (2,2'-azinobis(3-ethylbenzothiazolin-6-sulphonate)). This cation radical is metastable and has to be generated just before the experiment by reacting ABTS with hydrogen peroxide in the presence of HRP. This radical can be reduced, with consequent loss of absorbance, by an antioxidant whose scavenging capacity can be measured spectrophotometrically at 650 nm. The test is carried out at 37 °C and the results are obtained from a comparison with Trolox (a synthetic antioxidant and hydrophilic analogue of vitamin E).\nThe ABTS solution S1 was prepared as follows: • 20 mg of ABTS were added to 50 mM of citric acid buffer (40 ml) at pH=4.5 and to the resulting solution there was added an aqueous solution of HRP (4.4 mg, 400 µl) and an aqueous solution of H2O2 (10 µl of a 30% solution diluted with 16.3 ml of water).\nFor each of the compounds (1)-(11), as synthesized above, there was prepared a 600 µM solution in water, methanol or DMSO according to its solubility, as well as a Trolox solution as reference.\nEach solution was diluted to produce 6 solutions each at a concentration between 25 µM and 300 µM. From each of the diluted and divided solutions, there were withdrawn 20 µl to which 200 µl of solution S1 were then added.\nThe decrease in absorbance of each solution thus obtained was monitored at 650 nm until a stable value was reached (about 90 minutes).\nFor each set of 6 solutions and for the reference trolox solution, the absorption was given in graph form as a function of the amount of compound (nmol) in the solution. The gradient of the straight line obtained by linear interpolation was determined according to the least squares method. The TEAC value of each compound of the invention is given in the table below and is expressed as the ratio between the gradient of the resulting straight line and the gradient of the reference (trolox) straight line."}, "[2]": {"system": "doxorubicin-induced cerebral oxidative stress in mice", "assay": "In vivo assay of cerebral oxidative stress induced in mice by doxorubicin (model and oxidized animals)", "conditions": "Mus musculus; for change in vivo at 50 mg/kg: oxidized mice", "procedure": "The assay was carried out on compounds (1)-(5) and (7)-(11) and on edaravone (E) as comparative compound.\n(§1) 10 mice were used for each treatment group. For each compound 50 mg/kg were administered intraperitoneally (IP) for three consecutive days (day 0, 1 and 2); half the animals (5) also received IP 16.7 mg/kg of doxorubicin immediately after the first treatment (day 0). On the day after the last administration (day 3) the animals were killed by neck dislocation and the brains were removed, weighed and frozen in liquid nitrogen.\n(§2) For the analyses of oxidative stress, 100 mg/ml of brain homogenate was prepared in HEB^(*) buffer (pH 7.4 EDTA/HEPES^(**)) containing a mixture of enzyme inhibitors (Leupeptin, Pepstatin, Aprotinin, BHA).\n(§3) The evaluation parameters were: • BrW/BWi: ratio between final brain weight and initial body weight (day 0); • Prot. Hmg: total proteins in the homogenate (BCA method, i.e. bicinchoninic acid); • Prot. Ox: oxidized proteins in the Hmg by means of a colorimetric method using dinitrophenylhydrazone (DNPH); • GSH: reduced glutathione in the supernatant (sn) of the Hmg, obtained after precipitation with metaphosphoric acid (MPA), by means of a colorimetric method using dithiodinitrobenzene (DTNB); • CAT: catalase in the Hmg by a colorimetric method using potassium dichromate; • SOD: superoxide dismutase by a colorimetric method using SOD Reagent (xanthine, EDTA, nitroblue tetrazole, Na2CO3, BSA, i.e. bovine serum albumin); • GST: glutathione S-transferase in the supernatant by a colorimetric method using chlorodinitrobenzene (CDNB) and GSH; and • GPx: glutathione peroxidase in the supernatant after addition of GSH and t-BuOOH, heating and precipitation with MPA; followed by GSH method with DTNB. The assay was performed on the compounds (1)-(5) and (7)-(11) and on edaravone (E), as comparative compound.\nThe mean effect (n=5 experiments) of doxorubicin (D), i.e. \"oxidized\" animal, relative to the vehicle (V), the vehicle representing the healthy animal.\nAll the parameters, with the exclusion of Brain/BWi and Prot. Hmg, were normalized for total Hmg proteins. The D value standard deviations and the % incidence relative to V are given in italics.\nThe effect of the tested compounds on the \"oxidized\" animals was given as % inhibition relative to the percentage change due to doxorubicin alone. The effect of the compounds on the oxidized animals can be expressed both as a function of the values of the vehicle (healthy, vehicle only) and as a function of the value of its own (healthy, compound only): • Vehicle: percentage [(Compound+D)/V]x100/[(V+D)/V]x100 • Its own: percentage [(Compound+D)/Compound]x100/[(V+D)/V]x100\nAgain in this case, the mean % effect relative to doxorubicin alone could be given for all the parameters simultaneously, as an approximate index of effectiveness on the cerebral oxidative state of the animal."}, "[3]": {"system": "healthy animals", "assay": "Effect of the compounds on healthy animals (same in vivo assay, cerebral oxidative parameters)", "set-up": "species or system mice", "conditions": "for Average % variation with respect to the vehicle: 50 mg/kg IP for three consecutive days, mean over all parameters, D = doxorubicin alone", "procedure": "as §1, §2, §3\nThe mean % effect, on all the parameters simultaneously, of the triple treatment in healthy animal, as mean percentage change relative to the vehicle. This value is useful as an approximate safety index of the oxidative state of the brain, i.e. the capacity of the compounds of the invention not to alter cerebral homeostasis in healthy animals."}, "[4]": {"assay": "Brain-to-plasma concentration ratio in mice", "type": "in vivo, Female CD-1 mice", "conditions": "female, CD-1, mouse, ip, 25 mg/kg intraperitoneal, area under the curve of brain and plasma concentrations 0 to 60 minutes, read-out: B/P ratio"}},
  "note": "Like-named read-outs stand apart in the source and are kept apart here.",
  "data": [
    {"smiles": "O=C1CC(c2ccccc2)CC(=O)C1C1COCCN1O", "note": "(stereo not drawn) [(5), 2-(4-hydroxymorpholin-3-yl)-5-phenylcyclohexane-1,3-dione]", "values": [
      {"measurement": "TEAC", "setting": "[1]", "value": 1.2},
      {"measurement": "inhibition in vivo at 50 mg/kg", "setting": "[2]; ip, overall, compared with its own vehicle, read-out: inhibition of the doxorubicin effect", "value": "45 to 50", "unit": "%"},
      {"measurement": "change in vivo at 50 mg/kg", "setting": "[2]; ip, % inhibition relative to change due to doxorubicin alone, vs its own, read-out: Brain/BWi its own", "value": -128, "unit": "%"},
      {"measurement": "change in vivo at 50 mg/kg", "setting": "[2]; ip, % inhibition relative to change due to doxorubicin alone, vs its own, read-out: CAT/pr its own", "value": -24.2, "unit": "%"},
      {"measurement": "change in vivo at 50 mg/kg", "setting": "[2]; ip, % inhibition relative to change due to doxorubicin alone, vs its own, read-out: GPX/pr its own", "value": -14.1, "unit": "%"},
      {"measurement": "change in vivo at 50 mg/kg", "setting": "[2]; ip, % inhibition relative to change due to doxorubicin alone, vs its own, read-out: GSH/pr its own", "value": -40.8, "unit": "%"},
      {"measurement": "change in vivo at 50 mg/kg", "setting": "[2]; ip, % inhibition relative to change due to doxorubicin alone, vs its own, read-out: GST/pr its own", "value": -27.5, "unit": "%"},
      {"measurement": "change in vivo at 50 mg/kg", "setting": "[2]; ip, % inhibition relative to change due to doxorubicin alone, vs its own, read-out: Prot. Hmg its own", "value": -42.2, "unit": "%"},
      {"measurement": "change in vivo at 50 mg/kg", "setting": "[2]; ip, % inhibition relative to change due to doxorubicin alone, vs its own, read-out: Prot. Ox/pr its own", "value": -43.6, "unit": "%"},
      {"measurement": "change in vivo at 50 mg/kg", "setting": "[2]; ip, % inhibition relative to change due to doxorubicin alone, vs its own, read-out: SOD/pr its own", "value": 3.5, "unit": "%"},
      {"measurement": "change in vivo at 50 mg/kg", "setting": "[2]; ip, % inhibition relative to change due to doxorubicin alone, vs vehicle, read-out: Brain/BWi vehicle", "value": -49.3, "unit": "%"},
      {"measurement": "change in vivo at 50 mg/kg", "setting": "[2]; ip, % inhibition relative to change due to doxorubicin alone, vs vehicle, read-out: CAT/pr vehicle", "value": 7.6, "unit": "%"},
      {"measurement": "change in vivo at 50 mg/kg", "setting": "[2]; ip, % inhibition relative to change due to doxorubicin alone, vs vehicle, read-out: GPX/pr vehicle", "value": -7.1, "unit": "%"},
      {"measurement": "change in vivo at 50 mg/kg", "setting": "[2]; ip, % inhibition relative to change due to doxorubicin alone, vs vehicle, read-out: GSH/pr vehicle", "value": -21.6, "unit": "%"},
      {"measurement": "change in vivo at 50 mg/kg", "setting": "[2]; ip, % inhibition relative to change due to doxorubicin alone, vs vehicle, read-out: GST/pr vehicle", "value": -8.8, "unit": "%"},
      {"measurement": "change in vivo at 50 mg/kg", "setting": "[2]; ip, % inhibition relative to change due to doxorubicin alone, vs vehicle, read-out: Prot. Hmg vehicle", "value": -12, "unit": "%"},
      {"measurement": "change in vivo at 50 mg/kg", "setting": "[2]; ip, % inhibition relative to change due to doxorubicin alone, vs vehicle, read-out: Prot. Ox/pr vehicle", "value": -15.7, "unit": "%"},
      {"measurement": "change in vivo at 50 mg/kg", "setting": "[2]; ip, % inhibition relative to change due to doxorubicin alone, vs vehicle, read-out: SOD/pr vehicle", "value": -4.2, "unit": "%"},
      {"measurement": "change in vivo at 50 mg/kg", "setting": "[2]; 50 mg/kg IP x3 days + doxorubicin, computed as a function of its own (healthy, compound only), read-out: mean % effect relative to doxorubicin alone, all parameters (Its own)", "value": -47.5, "unit": "%"},
      {"measurement": "Average % variation with respect to the vehicle", "setting": "[3]; healthy mice, 50 mg/kg", "value": "did not significantly alter the parameters"},
      {"measurement": "Average % variation with respect to the vehicle", "setting": "[3]; healthy mice, listed as V+(5), 50 mg/kg", "value": -3.2, "unit": "%"},
      {"measurement": "Prot. Hmg", "setting": "[3]; healthy mice, 50 mg/kg IP x3 days, percentage change relative to the vehicle", "value": 5.0, "unit": "%"},
      {"measurement": "Brain/BWi", "setting": "[3]; mouse, in vivo, ip, 50 mg/kg", "value": 0.1, "unit": "%"},
      {"measurement": "CAT/pr", "setting": "[3]; mouse, in vivo, ip, 50 mg/kg", "value": -8.1, "unit": "%"},
      {"measurement": "GPX/pr", "setting": "[3]; mouse, in vivo, ip, 50 mg/kg", "value": -4.1, "unit": "%"},
      {"measurement": "GSH/pr", "setting": "[3]; mouse, in vivo, ip, 50 mg/kg", "value": -6.7, "unit": "%"},
      {"measurement": "GST/pr", "setting": "[3]; mouse, in vivo, ip, 50 mg/kg", "value": -5.8, "unit": "%"},
      {"measurement": "Prot. Ox/pr", "setting": "[3]; mouse, in vivo, ip, 50 mg/kg", "value": 1.8, "unit": "%"},
      {"measurement": "SOD/pr", "setting": "[3]; mouse, in vivo, ip, 50 mg/kg", "value": -3.7, "unit": "%"},
      {"measurement": "Kp", "setting": "[4]", "value": "> 0.1"}
    ]}
  ]
}
